The results in this text go back to ChEMBL document CHEMBL1201862, “PubChem BioAssay data set” (2004).

Structures can show the parent of a compound that is named as a salt.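 1) Cells in 96-well plates. 2) Compound, 48 h, 5 concentrations. 3) Linear interpolation between surrounding doses. 4) Unreached endpoint = highest concentration. Here, GI50 denotes the concentration required for 50% inhibition of growth.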 Active and inactive are the calls of the source. Cut-off read from the data, not from the text of the source: active = GI50 up to about 1.1 µM and inactive = higher. Some results are limits rather than exact numbers.

Some test systems named below: A498; A549; Hs-578T; IGROV-1; KM12; M14; MCF7; NCI-H226; NCI-H23; NCI/ADR-RES; OVCAR-4; OVCAR-5; OVCAR-8; RXF 393; SF-268; SK-OV-3; T47D; UO-31; HL-60.
Assay in all cases: NCI tumour cell line growth inhibition, 48 h

In the case of `N#Cc1c(NC(=O)CCC(=O)O)ccc2ccccc12`, the GI50 with A498, in the assay on A549, with Hs-578T, in the assay on IGROV-1, in the assay with KM12 and in the assay with M14 was > 100 µM (inactive) each time. Further, the GI50 in the assay on MCF7, in the assay with NCI-H226, in the assay with NCI-H23, with NCI/ADR-RES, in the assay on OVCAR-4 and in the assay on OVCAR-5 was > 100 µM (inactive) each time. Further, the GI50 with OVCAR-8, with RXF 393, in the assay on SF-268, in the assay with SK-OV-3, in the assay with T47D and in the assay with UO-31 was > 100 µM (inactive) in each case.
On to `CC1=NN(C(=O)CC(=O)NC(=O)/C=C\c2ccccc2)C(=O)C1/N=N/c1ccc([N+](=O)[O-])cc1` (centres undefined), for which the GI50 was 20.5 µM (inactive) with A498; 84.5 µM (inactive) in the assay on A549; > 100 µM (inactive) in the assay on HL-60; 44 µM (inactive) in the assay on Hs-578T; 58.3 µM (inactive) in the assay with IGROV-1; 30 µM (inactive) in the assay with KM12. Moreover, the GI50 in the assay on M14 was > 100 µM (inactive); in the assay on MCF7 it was > 100 µM (inactive); in the assay with NCI-H23 it was 40.2 µM (inactive); in the assay on NCI/ADR-RES it was > 100 µM (inactive); in the assay on OVCAR-5 it was > 100 µM (inactive); with OVCAR-8, > 100 µM (inactive). For the same compound, the GI50 in the assay with RXF 393 was > 100 µM (inactive); in the assay with SF-268 it was > 100 µM (inactive); with SK-OV-3, > 100 µM (inactive); with T47D, > 100 µM (inactive); with UO-31 it was 48 µM (inactive).
Turning to `Cc1n[nH]c(=O)n1/N=C/c1cccs1`, the GI50 with A498 was > 100 µM (inactive); in the assay with A549 it was > 100 µM (inactive); in the assay on Hs-578T, 36.5 µM (inactive); in the assay with KM12, > 100 µM (inactive); in the assay with M14, > 100 µM (inactive); with MCF7 it was > 100 µM (inactive). The GI50 with NCI-H226, with NCI-H23, in the assay on NCI/ADR-RES, in the assay on OVCAR-4, in the assay on OVCAR-5 and in the assay with OVCAR-8 was > 100 µM (inactive) each time. Further, the GI50 in the assay on RXF 393, with SF-268, in the assay with SK-OV-3, in the assay on T47D and in the assay on UO-31 was > 100 µM (inactive) throughout.
In the case of `Cn1c(COC(=O)NC2CCCCC2)c(COC(=O)NC2CCCCC2)c2ccc3cc(Cl)c(Cl)cc3c21`, the GI50 in the assay on A498 was 12.7 µM (inactive); in the assay on A549, 48.1 µM (inactive); in the assay on HL-60 it was 9.62 µM (inactive); in the assay with Hs-578T, 3.66 µM (inactive); in the assay with IGROV-1, 17 µM (inactive); with KM12, 15.6 µM (inactive). For the same compound, the GI50 in the assay on M14 is 16.5 µM (inactive); with MCF7, 4.03 µM (inactive); in the assay with NCI-H226 it was 34.2 µM (inactive); in the assay with NCI-H23, 15.6 µM (inactive); in the assay with NCI/ADR-RES it was 53.1 µM (inactive); in the assay with OVCAR-5 it was 16 µM (inactive). Also, the GI50 in the assay with OVCAR-8 is 28.2 µM (inactive); in the assay on RXF 393, 6.12 µM (inactive); with SF-268, 6.4 µM (inactive); in the assay with SK-OV-3 it was 22 µM (inactive); in the assay with T47D it was 5.37 µM (inactive); with UO-31 it was 28.4 µM (inactive).
Consider `C=C(C(=O)O)[C@@H]1C[C@@H]2O[C@H]1CC(C)=CCC/C(C)=C/CC[C@@]2(C)O`, for which the GI50 in the assay with A498, in the assay with A549, in the assay with HL-60, in the assay on Hs-578T, in the assay with IGROV-1 and in the assay on KM12 was > 100 µM (inactive) each time. The GI50 in the assay with M14, in the assay with MCF7, with NCI-H226, in the assay with NCI/ADR-RES, in the assay on OVCAR-4 and in the assay on OVCAR-5 was > 100 µM (inactive) each time. The GI50 with OVCAR-8, in the assay with RXF 393, with SF-268, in the assay with T47D and in the assay on UO-31 was > 100 µM (inactive) each time.
Turning to `COc1nc(C)nc2sc3c(c12)CCCC3`, the GI50 in the assay with A498, in the assay with HL-60, in the assay with Hs-578T, in the assay with IGROV-1, with KM12 and in the assay on MCF7 was > 100 µM (inactive) in each case. Besides, the GI50 in the assay with NCI-H226, in the assay on NCI-H23, with NCI/ADR-RES, with OVCAR-4, in the assay with OVCAR-5 and in the assay with OVCAR-8 was > 100 µM (inactive) in each case. Besides, the GI50 is > 100 µM (inactive) with RXF 393, > 100 µM (inactive) with SF-268, > 100 µM (inactive) in the assay with T47D and 89.9 µM (inactive) in the assay with UO-31.
For the compound `[O-][n+]1c2cccc(O)c2[n+]([O-])c2cccc(O)c21`, the GI50 with A498 is > 100 µM (inactive); in the assay on A549, 84.7 µM (inactive); in the assay with HL-60 it was 47.9 µM (inactive); in the assay with Hs-578T it was > 100 µM (inactive); in the assay on IGROV-1, 6.53 µM (inactive); with KM12, 37.5 µM (inactive). In addition, the GI50 is > 100 µM (inactive) in the assay with M14; 20.7 µM (inactive) in the assay on MCF7; 94.6 µM (inactive) with NCI-H23; 70.8 µM (inactive) in the assay on NCI/ADR-RES; 42.7 µM (inactive) in the assay on OVCAR-4; > 100 µM (inactive) in the assay on OVCAR-5. Moreover, the GI50 with OVCAR-8 was 25.9 µM (inactive); in the assay with RXF 393, 60.4 µM (inactive); with SF-268, 31.8 µM (inactive); in the assay with SK-OV-3, 45.7 µM (inactive); in the assay with T47D it was 40.2 µM (inactive); with UO-31, > 100 µM (inactive).
For the compound `O=C1c2ccccc2C(=O)N1CCCCNOCCCN1C(=O)c2ccccc2C1=O`, the GI50 in the assay with A498, with A549, in the assay on Hs-578T, in the assay on IGROV-1, with KM12 and in the assay on M14 was > 100 µM (inactive) in each case. The GI50 in the assay with MCF7, in the assay on NCI-H226, in the assay on NCI-H23, in the assay on NCI/ADR-RES, with OVCAR-4 and in the assay on OVCAR-5 was > 100 µM (inactive) throughout. The GI50 in the assay on OVCAR-8, in the assay on RXF 393, with SF-268, in the assay with SK-OV-3, with T47D and in the assay on UO-31 was > 100 µM (inactive) each time.
Regarding `COc1ccc2nc3c(nc2c1)C(C)(C)C=C3c1ccc(Br)cc1`, the GI50 with A498, in the assay on A549, with HL-60, in the assay on Hs-578T, with IGROV-1 and in the assay on KM12 was > 100 µM (inactive) in each case. Moreover, the GI50 in the assay on M14 was > 100 µM (inactive); with MCF7 it was > 100 µM (inactive); in the assay with NCI-H226 it was > 100 µM (inactive); in the assay with NCI/ADR-RES, > 100 µM (inactive); in the assay with OVCAR-4, 76.9 µM (inactive); in the assay with OVCAR-5 it was > 100 µM (inactive). Besides, the GI50 with OVCAR-8, with RXF 393, with SF-268 and with T47D was > 100 µM (inactive) each time.
With `Cc1cnc(-n2c(C)nc3cc(Cl)ccc3c2=O)s1`, the GI50 in the assay with A498 is 20.4 µM (inactive); in the assay with A549, 32.7 µM (inactive); in the assay on HL-60, 26 µM (inactive); with Hs-578T, 74.6 µM (inactive); with IGROV-1, 40 µM (inactive); in the assay on KM12 it was 21.8 µM (inactive). For the same compound, the GI50 in the assay on M14 was 31.6 µM (inactive); in the assay on MCF7, 17.9 µM (inactive); in the assay with NCI-H226 it was 32 µM (inactive); in the assay with NCI-H23 it was 23.3 µM (inactive); with NCI/ADR-RES it was 28 µM (inactive); with OVCAR-4 it was 58.5 µM (inactive). Moreover, the GI50 was 56.4 µM (inactive) in the assay with OVCAR-5; 45.7 µM (inactive) with OVCAR-8; 44.1 µM (inactive) in the assay on SF-268; > 100 µM (inactive) in the assay on SK-OV-3; 21.3 µM (inactive) with T47D; 1.28 µM (inactive) in the assay on UO-31.
As for `C=C1C[C@@H]2CC[C@@]34C[C@H]5O[C@H]6[C@@H](O3)[C@H]3O[C@H](CC[C@@H]3O[C@H]6[C@H]5O4)CC(=O)C[C@@H]3[C@@H](OC)[C@@H](C[C@H](O)CN)O[C@H]3C[C@H]3O[C@@H](CC[C@@H]1O2)C[C@@H](C)C3=C` [ERIBULIN MESYLATE], the GI50 with A498 is 0.00434 µM (active); with A549, 0.00197 µM (active); in the assay on Hs-578T it was 0.0022 µM (active); in the assay on IGROV-1, 0.00151 µM (active); in the assay on KM12 it was 0.000326 µM (active); in the assay on M14 it was 0.00309 µM (active). Further, the GI50 with MCF7 was 0.000383 µM (active); with NCI-H226, 0.000522 µM (active); in the assay with NCI-H23, 0.00109 µM (active); in the assay with NCI/ADR-RES it was 0.294 µM (active); in the assay with OVCAR-4, 0.00319 µM (active); in the assay with OVCAR-8, 0.00598 µM (active). Also, the GI50 is 0.00267 µM (active) in the assay on SF-268, 0.000558 µM (active) with SK-OV-3, < 0.0001 µM (active) in the assay on T47D and 0.126 µM (active) in the assay on UO-31.
